In general, IC50 refers to the concentration needed to halve the response being measured. One may read the Ki as a dissociation constant, usually derived from enzyme kinetics or from competition with a known ligand.

Data set [1] concerns polyubiquitinylated proteins in Caco-2 cells. As to the kind of experiment: Protein ubiquitinylation in Caco-2 cells (immunoblot). It is filed as cell-based, human. To be noted: 48 h, 200 µM SsCEI 4 or t10c12-CLA, mixture, 100 µM ebelactone, 10 µM MG132, species 66 kDa to 160 kDa. From the text: (§1) The following antibodies were used: anti-APEH antibody (sc-102311; Santa Cruz Biotechnology); anti-NF-κB/p65 antibody (Thermo Scientific); anti-p21Waf1 antibody (Exbio); pan Ab-5 anti-actin antibody (clone ACTN05, Thermo Scientific); and monoclonal antibodies against polyubiquitinylated proteins conjugated with horseradish peroxidase (FK2H, Enzo, Life Science). The ΔF508CFTR-3HA protein was detected with an anti HA monoclonal antibody (Covance).
For orientation: Immunoblotting shows a protein as a band on a membrane.

The test system of the next data set is APEHSs. As to the kind of experiment: Inhibition of S. solfataricus APEH (APEHSs), Ac-Leu-pNA substrate. Type of data set: biochemical, Sulfolobus solfataricus. The method, then:
(§2) APEH activity was expressed in IU.
(§3) Protease inhibitor activities of the SsCEI peptides and the CLA isomers were carried out using a fixed amount of APEH or partially purified proteasome (3–5 nM and 0.12 mg/mL, respectively), and increasing the SsCEI and CLA isomer concentrations. Mixtures were pre-incubated for 30 min at 37°C before the addition of the substrate, and the enzymatic activities were followed as described above. Protease inhibitor activities of the SsCEI peptides and the CLA isomers were determined towards APEHSs. The protease and increasing concentrations of the inhibitors were mixed and preincubated for 30 min at 80°C before the addition of the specific substrate. The residual enzymatic activity was determined using the assay procedure described above.
(§4) All data were obtained from triplicate analyses of three different preparations. Data were presented as means ±S.D. Statistical analysis and IC50 values were calculated with the SigmaPlot 10.0 software through a non-linear curve-fitting method and using a simple binding isotherm equation. Groups were compared by Student's t test, and P<0.05 was considered as significant.

The subject of the next data set is BHK cells. As to the kind of experiment: Cytotoxicity in BHK cells. It is filed as cell-based, Baby Hamster. To be noted: 100 µM, 24 h or 48 h; data not shown. As to the method:
(§5) The cells were plated in 12-well plates, to a confluence of 60% for the 24-h incubations, and 40% for 48-h exposure to PIs. These treatments were initiated 24-h after the plating of the cells. Phase-contrast images of the cells were taken just before the lysis of the cells for protein analysis, using a Lica DM6000 inverted microscope.

Another data set relates to p21Waf1 in Caco-2 cells. As to the kind of experiment: Immunoblot of p21Waf1 in Caco-2 cells. It is filed as cell-based, human. To be noted: 200 µM alone, 48 h.
Excerpt: as §1

The target in a further data set is T1, porcine APEH (Sus scrofa, UniProt P19205).
T1 construct: mammalian APEHs purified from both porcine liver and human colon carcinoma intestinal cells (Caco-2); purchased Takara; host or cells: porcine liver
T1 sequence (P19205 1-732): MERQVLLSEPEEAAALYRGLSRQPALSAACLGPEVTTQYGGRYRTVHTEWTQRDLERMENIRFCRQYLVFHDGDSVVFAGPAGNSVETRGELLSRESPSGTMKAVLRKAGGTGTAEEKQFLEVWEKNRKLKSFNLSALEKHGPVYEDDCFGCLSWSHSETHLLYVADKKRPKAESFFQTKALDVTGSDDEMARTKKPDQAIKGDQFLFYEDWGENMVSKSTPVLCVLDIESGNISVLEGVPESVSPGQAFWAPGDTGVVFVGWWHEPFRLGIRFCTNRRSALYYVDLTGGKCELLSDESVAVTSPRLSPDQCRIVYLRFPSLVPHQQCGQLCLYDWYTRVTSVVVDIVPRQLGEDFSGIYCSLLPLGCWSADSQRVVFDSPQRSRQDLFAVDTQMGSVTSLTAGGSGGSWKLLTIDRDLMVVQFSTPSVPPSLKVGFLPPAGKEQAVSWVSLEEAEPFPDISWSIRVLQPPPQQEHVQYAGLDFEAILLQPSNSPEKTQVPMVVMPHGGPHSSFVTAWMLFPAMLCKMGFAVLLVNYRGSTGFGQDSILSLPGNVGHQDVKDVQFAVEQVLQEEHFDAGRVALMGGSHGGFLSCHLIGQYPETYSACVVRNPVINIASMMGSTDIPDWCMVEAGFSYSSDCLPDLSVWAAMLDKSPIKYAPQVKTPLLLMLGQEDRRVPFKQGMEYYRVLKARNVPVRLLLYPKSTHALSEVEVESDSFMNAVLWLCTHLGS
As to the kind of experiment: Inhibition of porcine liver APEH, Ac-Ala-pNA substrate. It is filed as biochemical. As to the method:
as §2, §3, §4

The next data set has as its system Caco-2 cells. As to the kind of experiment: LDH release cytotoxicity assay in Caco-2 cells. To be noted: 48 h. On the technique in general: LDH in the medium is a marker of cell lysis.
The subject of the next data set is APEH in BHK cells. As to the kind of experiment: APEH activity in BHK cells. It is filed as cell-based, Baby Hamster. To be noted: 50 and 100 µM, 48 h. As to the method: as §2, §5
Data set [2] relates to caspase-3 in Caco-2 cells. As to the kind of experiment: Caspase-3 activity in Caco-2 cells. Type of data set: cell-based, human. To be noted: 48 h. As to the method: The pro-apoptotic ability of the peptides and the CLA isomers were assayed by measuring the caspase-3 and caspase-8 activities using fluorometric kits, according to the manufacturer instructions. These assays were based on hydrolysis of the substrate acetyl-Asp-Glu-Val-Asp-7-amido-4-methylcoumarin (Ac-DEVD-AMC) or acetyl-Ile-Glu-Thr-Asp-7-amino-4-methyl coumarin (Ac-IETD-AMC) by caspase-3 and caspase-8, respectively. The release of the 7-AMC moiety in protein extracts prepared from the differently treated cells was evaluated by fluorimetry (excitation 360 nm, emission 460 nm). Their amounts were calculated by means of a standard curve prepared with pure AMC, and following normalisation for protein content, the activities were expressed as nmoles AMC/mg protein/min.

`CCCCC/C=C\C=C\CCCCCCCCC(=O)O` [t10c12-CLA, trans10-cis12 CLA]: the “polyubiquitin conjugates in cell extract” value in data set [1] is given as “presence of high-molecular-mass immunoreactive species”. Further, the IC50 in the data set on APEHSs (Ac-Leu-pNA 0.1 mM, 25 mM Tris-HCl pH 7.5, pre-incubated 30 min at 80°C, mean ± SD, read-out: IC50 towards APEHSs) was 80 ± 2 µM; on porcine APEH (Ac-Ala-pNA 1 mM, 50 mM Tris-HCl pH 7.5, pre-incubated 30 min at 37°C, mean ± SD, read-out: IC50 towards porcine APEH), 105 ± 23 µM. Moreover, the inhibition constant Ki on APEHSs (Lineweaver–Burk equation, Ac-Leu-pNA, read-out: Ki towards APEHSs) turned out to be 140 ± 20 µM. The “inhibition mechanism towards APEHSs” value with APEHSs (Michaelis–Menten / Lineweaver–Burk analysis) is given as “non-competitive”. In the data set with BHK cells, the “cytotoxic effects in BHK cells” value was “without any cytotoxic effects”. Also, in the data set on p21Waf1 in Caco-2 cells, the “increase of p21Waf1” value was “two”. Moreover, the “inhibition mechanism towards porcine APEH” value on porcine APEH (Lineweaver-Burk plot) is recorded as “non–competitive”. Moreover, in the data set on Caco-2 cells (200 µM SsCEI 4 or t10c12-CLA, 100 µM ebelactone, MG132 10 µM), the “toxicity (LDH release) compared with MG132” value is listed as “significantly lower than that observed in culture incubated with MG132”. Moreover, the “cytotoxic effect (LDH activity levels)” value with Caco-2 cells (up to highest concentration 200 µM) was “not associated with any cytotoxic effect”. Moreover, in the data set on APEH in BHK cells, the “APEH activity in BHK cells” value was “dose-dependent inhibition”. Also, in data set [2] (200 µM, vs untreated, P<0.01), the caspase-3 activity increase result is on record as “about two”. Moreover, in data set [2] (increasing concentrations up to 200 µM), the “caspase-3 activity, dose response” value was “improved at increasing doses”.

The values are drawn from PMC3189933, “Acylpeptide Hydrolase Inhibition as Targeted Strategy to Induce Proteasomal Down-Regulation” (PLoS ONE, 2011).
